From patent US10495630B2, “Methods for the determination of compounds or compositions for the treatment of lipofuscin related diseases and compounds or compositions” (KATAIRO GMBH, priority 2014, dated 2019)
Read-outs that look alike come from different tables or passages of the source. Each block holds one molecule with its values, some of them ahead of it.

Experiments:
[1] = test system: Abca4 (−/−) mice; assay: A2E concentration in eyes of Abca4 (−/−) mice after intravitreal injection, HPLCMSMS; assay type: in vivo; conditions: for response vs control in vivo at 40000 µg/mL / response vs control in vivo at 20000 µg/mL: Mus musculus, 168 h, read-out: % of A2E relative to age matched untreated
Source text: […] […] The left eye was not treated and maintained as a control. Untreated eyes of age-matched mice lacking the Abca4 transporter were an additional control.
The concentration in each treated eye was then expressed as a percentage of the average concentration in all untreated eyes in the mice of the same age.
The left eye was not treated and maintained as a control. Untreated eyes of age-matched mice lacking the Abca4 transporter were an additional control.
The left eye was not treated and maintained as a control. Untreated eyes of age-matched mice lacking the Abca4 transporter were an additional control. […] Tryptophan is capable of absorbing and re-radiating light energy, as is riboflavin.
Water solutions were diluted 1:3 with acetonitrile and then sealed in vials for injection. 6 μL of the water acetonitrile solutions were injected onto a 2×50 mm Phenyl derived HPLC column (3 μm) and eluted with a gradient from 20% acetonitrile to 100% acetonitrile over 4 minutes at a flow rate of 500 μL/minute.

[2] = test system: human retinal pigment epithelium (RPE) cells; assay: Degradation of lipofuscin in human RPE cells (micrographs after one week); assay type: cell-based; conditions: one week incubation
Description: To explore the role of the reactive chemical species the human retinal pigment epithelium (RPE) cells were treated with the super oxide anion donor (SAD) soraprazan ((7R,8R,9R)-2,3-Dimethyl-8-hydroxy-7-ethoxy-9-phenyl-7,8,9,10-tetrahydro-imidazo-[1,2-h][1,7]-naphthyridin)—a member of the THPE family—either alone or in combination with a known radical oxygen scavenger, cardioxane.
After growing the hRPE-cells to confluence, the test compounds were added to seven cell cultures and the cells were incubated at 37° C. and 5% CO2. The SAD was added to the cell cultures in a concentration of 50 μg/ml either alone or in combination with cardioxane in a concentration of 10 μM, 50 μM or 100 μM. Additionally, three cell cultures were incubated only with cardioxane in a concentration of 10 μM, 50 μM or 100 μM. As control, one cell culture was grown without test compounds.
After one week of incubation micrographs of the differently incubated RPE cells were taken as shown in FIG. 2A to H. In the original images, lipofuscin in cells is visible as a yellow-gold-orange fluorescent structure, before a blue background. In the grey scale reproduction in FIG. 2 the yellow-gold-orange structure appear light grey (yellow) or dark grey (gold-orange) before a grey background. Areas of degradation of lipofuscin in the hRPE cells appears as bright blue to whitish structures which appear white in the in the grey scale reproduction and are circled in FIG. 2A.
The bright blue structures are only observed in the experimental set up with SAD alone (FIG. 2A).

[3] = test system: melanin A2E particles; assay: Assay for binding to A2E melanin particles; set-up: species or system S. officinalis; conditions: FIG. 3A; 37° C., 4 h
Description: To study the binding of A2E to melanin, a suspension of 2 mg/ml natural melanin (S. officinalis) is prepared in PBS, pH 7.4. The melanin suspension is brought to 37° C. and sonicated for 15 min to form a uniform suspension. The melanin suspension (0.75 ml) is measured in aliquots into glass test tubes (12×75 mm) under continuous shaking to avoid sedimentation. The solution of A2E (0.75 ml) is added to the above-mentioned melanin aliquots, and the tubes will be incubated in a shaker incubator at 37° C. and 300 rpm for 4 h.
Controls are prepared by incubating A2E in the absence of melanin in incubation medium and by incubating melanin without A2E. Compounds are added to melanin suspension from stock solutions. After incubation, the suspensions are centrifuged at 13,000 rpm for 15 min at room temperature to remove the melanin granules. The supernatant is collected, diluted with acetonitrile and analyzed by an LC-MS/MS method to determine the concentration of […] in the supernatant. The kinetic parameters of binding study, i.e., maximal binding capacity (rmax) and the binding affinity (k) are determined for A2E according to the previously reported method (Cheruvu et al., 2008).
A high percentage of soraprazan and demethoxysoraprazan—about 46% and about 53%, respectively—are found bound to the melanin A2E particles.

[4] = dyes and porphyrins, intravitreal 2 μl of 20 mg/ml, one week after injection
[5] = permeability agents, intravitreal 2 μl of 40 mg/ml or concentration as indicated in the table, one week after injection
[6] = amino acids or metabolites, intravitreal 2 μl of 40 mg/ml, one week after injection
[7] = quinolones, intravitreal 2 μl of 20 mg/ml, one week after injection
[8] = redox active and chelating protein, intravitreal 2 μl of 20 mg/ml, one week after injection
[9] = tetracycline antibiotics, intravitreal 2 μl of 20 mg/ml, one week after injection
[10] = redox active small molecules and chelator, intravitreal 2 μl of 20 mg/ml, 16 hours after injection
[11] = chelators or metal interactors, intravitreal 2 μl of 40 mg/ml or concentration as indicated, one week after injection

Molecule: O=C1/C(=C2\Nc3ccc(S(=O)(=O)[O-])cc3C2=O)Nc2ccc(S(=O)(=O)[O-])cc21.[Na+].[Na+] [Indigocarmine]
% of A2E relative to age matched untreated [1, 4]: 98%
Concentration A2E (μM) in the treated eye [1, 4]: 22 µM

Molecule: C[C@@H](CN1CC(=O)NC(=O)C1)N1CC(=O)NC(=O)C1 [cardioxane]
Effect on the lipofuscin degradation seen with SAD ([2]; cardioxane 10, 50 or 100 μM added to SAD 50 μg/ml): abolishes the degradation of lipofuscin
Degradation / removal of lipofuscin in hRPE cells ([2]; test compound alone (SAD 50 μg/ml; cardioxane 10, 50 or 100 μM)): do not show any degradation of lipofuscin

Molecule: Cyclodextrin
% of A2E relative to age matched untreated [1, 5]: 83%
Concentration A2E (μM) in the treated eye [1, 5]: 20 µM

Molecule: Cc1cc2nc3c(=O)[nH]c(=O)nc-3n(C[C@H](O)[C@H](O)[C@H](O)CO)c2cc1C [Riboflavin]
response vs control in vivo at 40000 µg/mL [1, 6]: 91%
Concentration A2E (μM) in the treated eye [1, 6]: 19 µM

Molecule: N[C@@H](Cc1c[nH]c2ccccc12)C(=O)O [Tryptophan]
response vs control in vivo at 40000 µg/mL [1, 6]: 66%
Concentration A2E (μM) in the treated eye [1, 6]: 13 µM

Molecule: CN1CCN(c2c(F)cc3c(=O)c(C(=O)O)cn(CCF)c3c2F)CC1 [Fleroxacin]
response vs control in vivo at 20000 µg/mL [1, 7]: 74%
Concentration A2E (μM) in the treated eye [1, 7]: 24 µM

Molecule: CC1(C)C(/C=C/C=C/C=C/C=C2\N(CCCCS(=O)(=O)O)c3ccc4ccccc4c3C2(C)C)=[N+](CCCCS(=O)(=O)[O-])c2ccc3ccccc3c21 [Indocyanine green]
response vs control in vivo at 20000 µg/mL [1, 4]: 66%
Concentration A2E (μM) in the treated eye [1, 4]: 20 µM

Molecule: C=C[C@H]1C[N@@]2CC[C@H]1C[C@H]2[C@H](O)c1ccnc2ccc(OC)cc12 [Quinine]
response vs control in vivo at 20000 µg/mL [1, 4]: 81%
Concentration A2E (μM) in the treated eye [1, 4]: 17 µM

Molecule: CCn1cc(C(=O)O)c(=O)c2cc(F)c(N3CCNCC3)cc21 [Norfloxacin]
response vs control in vivo at 20000 µg/mL [1, 7]: 106%
Concentration A2E (μM) in the treated eye [1, 7]: 36 µM

Molecule: c1ccc2c(c1)-c1nc-2nc2[nH]c(nc3nc(nc4[nH]c(n1)c1ccccc41)-c1ccccc1-3)c1ccccc21 [Phthalocyanine]
% of A2E relative to age matched untreated [1, 4]: 142%
Concentration A2E (μM) in the treated eye [1, 4]: 31 µM

Molecule: C[C@@H]1CN(c2c(F)c(N)c3c(=O)c(C(=O)O)cn(C4CC4)c3c2F)C[C@H](C)N1 [Sparfloxacin]
response vs control in vivo at 20000 µg/mL [1, 7]: 99%
Concentration A2E (μM) in the treated eye [1, 7]: 36 µM

Molecule: Cytochrome C: redox active electron carrier protein used as a model peroxidase
% of A2E relative to age matched untreated [1, 8]: 81%
Concentration A2E (μM) in the treated eye [1, 8]: 18 µM

Molecule: R/S-demethoxysoraprazan
Proportion of compound bound to the melanin A2E particles after incubation [3]: bind to the A2E melanin particles although to a lower percentage

Molecule: O=C(N[C@H](CO)[C@H](O)c1ccc([N+](=O)[O-])cc1)C(Cl)Cl [Chloramphenicol]
response vs control in vivo at 20000 µg/mL [1, 9]: 70%
Concentration A2E (μM) in the treated eye [1, 9]: 24 µM

Molecule: C[C@@H]1CC[C@H]2[C@@H](C)C(=O)O[C@@H]3O[C@@]4(C)CC[C@@H]1[C@]32OO4 [Artemesinin]
% of A2E relative to age matched untreated [1, 10]: 75%
Concentration A2E (μM) in the treated eye [1, 10]: 38 µM

Molecule: C[C@H]1c2cccc(O)c2C(=O)C2=C(O)[C@]3(O)C(=O)C(C(N)=O)=C(O)[C@@H](N(C)C)[C@@H]3[C@@H](O)[C@@H]21 [Doxycycline]
response vs control in vivo at 20000 µg/mL [1, 9]: 81%
Concentration A2E (μM) in the treated eye [1, 9]: 28 µM

Molecule: c1cnc2c(c1)ccc1cccnc12 [1,10-phenanthroline]
response vs control in vivo at 40000 µg/mL [1, 11]: 91%
Concentration A2E (μM) in the treated eye [1, 11]: 20 µM

Proportion of compound bound to the melanin A2E particles after incubation [3]: about 53%
Molecule: demethoxysoraprazan

Molecule: CN(C)c1ccc(O)c2c1C[C@H]1C[C@H]3[C@H](N(C)C)C(O)=C(C(N)=O)C(=O)[C@@]3(O)C(O)=C1C2=O [Minocycline]
response vs control in vivo at 20000 µg/mL [1, 9]: 100%
Concentration A2E (μM) in the treated eye [1, 9]: 33 µM

Molecule: Cc1cc2nc3c(=O)[nH]c(=O)nc-3n(C[C@H](O)[C@H](O)[C@H](O)COP(=O)(O)OP(=O)(O)OC[C@H]3O[C@@H](n4cnc5c(N)ncnc54)[C@H](O)[C@@H]3O)c2cc1C [FAD]
% of A2E relative to age matched untreated [1, 4]: 99%
Concentration A2E (μM) in the treated eye [1, 4]: 23 µM

Molecule: c1ccc2c(c1)Nc1ccccc1S2 [Phenothiazine]
response vs control in vivo at 20000 µg/mL [1]: 85%
Concentration A2E (μM) in the treated eye [1, 4]: 27 µM

Molecule: CN(C)c1ccc(C(=C2C=CC(=[N+](C)C)C=C2)c2ccc(N(C)C)cc2)cc1 [Crystal violet]
response vs control in vivo at 20000 µg/mL [1, 4]: 71%
Concentration A2E (μM) in the treated eye [1, 4]: 23 µM

Molecule: Transferrin (apo): protein capable of binding iron with high affinity
% of A2E relative to age matched untreated [1, 8]: 82%
Concentration A2E (μM) in the treated eye [1, 8]: 15 µM

Molecule: N[C@@H](CCC(=O)N[C@@H](CS)C(=O)NCC(=O)O)C(=O)O [Glutathione]
response vs control in vivo at 40000 µg/mL [1, 6]: 89%
Concentration A2E (μM) in the treated eye [1, 6]: 35 µM

Molecule: N[C@@H](CS)C(=O)O [Cysteine]
response vs control in vivo at 40000 µg/mL [1, 6]: 59%
Concentration A2E (μM) in the treated eye [1, 6]: 12 µM
% of A2E relative to age matched untreated [1, 11]: 59%
Concentration A2E (μM) in the treated eye [1, 11]: 12 µM

Molecule: O=C([O-])c1c(Cl)c(Cl)c(Cl)c(Cl)c1-c1c2cc(I)c(=O)c(I)c-2oc2c(I)c([O-])c(I)cc12.[Na+].[Na+] [Rose bengal]
% of A2E relative to age matched untreated [1, 4]: 85%
Concentration A2E (μM) in the treated eye [1, 4]: 16 µM

Molecule: O=C1OC2(c3ccc(O)cc3Oc3cc(O)ccc32)c2ccccc21 [Fluoroscein]
response vs control in vivo at 20000 µg/mL [1, 4]: 85%
Concentration A2E (μM) in the treated eye [1, 4]: 20 µM
